# Measurements published in ChEMBL document CHEMBL4308841, “Synthesis, in vitro antiproliferative activity, and kinase inhibitory effects of pyrazole-containing diarylureas and diarylamides” (Eur J Med Chem, 2018).
# Key:
# TK-10 = experiment: Growth inhibition of human TK10 cells assessed as cell growth at 10 uM incubated for 48 hrs by sulforhodamine B assay relative to control; type: functional; settings: TK-10, 48 h, read-out: Activity
# NCI-H522 = experiment: Growth inhibition of human NCI-H522 cells incubated for 48 hrs by sulforhodamine B assay; type: functional, cell-based; settings: NCI-H522, 48 h
# HCT-15 [1] = experiment: Growth inhibition of human HCT15 cells incubated for 48 hrs by sulforhodamine B assay; type: functional, cell-based; settings: HCT-15, 48 h
# Malme-3M = experiment: Growth inhibition of human MALME-3M cells incubated for 48 hrs by sulforhodamine B assay; type: functional, cell-based
# OVCAR-8 = experiment: Growth inhibition of human OVCAR8 cells incubated for 48 hrs by sulforhodamine B assay; type: functional, cell-based; settings: OVCAR-8, 48 h
# Hs-578T [2] = experiment: Growth inhibition of human Hs578T cells incubated for 48 hrs by sulforhodamine B assay; type: functional, cell-based
# HCT-116 [3] = experiment: Growth inhibition of human HCT116 cells assessed as cell growth at 0.01 uM incubated for 48 hrs by sulforhodamine B assay relative to control; type: functional; settings: HCT-116, 48 h, read-out: Activity
# SNB-19 = experiment: Growth inhibition of human SNB19 cells assessed as cell growth at 0.01 uM incubated for 48 hrs by sulforhodamine B assay relative to control; type: functional; settings: SNB-19, 48 h, read-out: Activity
# SNB-75 [4] = experiment: Growth inhibition of human SNB75 cells assessed as cell growth at 0.01 uM incubated for 48 hrs by sulforhodamine B assay relative to control; type: functional; settings: SNB-75, 48 h, read-out: Activity
# RXF 393 = experiment: Growth inhibition of human RXF393 cells assessed as cell growth at 0.01 uM incubated for 48 hrs by sulforhodamine B assay relative to control; type: functional; settings: RXF 393, 48 h, read-out: Activity
# SR = experiment: Growth inhibition of human SR cells assessed as cell growth at 0.1 uM incubated for 48 hrs by sulforhodamine B assay relative to control; type: functional; settings: read-out: Activity
# NCI-H23 [5] = experiment: Growth inhibition of human NCI-H23 cells assessed as cell growth at 0.1 uM incubated for 48 hrs by sulforhodamine B assay relative to control; type: functional; settings: NCI-H23, 48 h, read-out: Activity
# HCT-116 [6] = experiment: Growth inhibition of human HCT116 cells assessed as cell growth at 0.1 uM incubated for 48 hrs by sulforhodamine B assay relative to control; type: functional; settings: HCT-116, 48 h, read-out: Activity
# SF-268 = experiment: Growth inhibition of human SF268 cells assessed as cell growth at 0.1 uM incubated for 48 hrs by sulforhodamine B assay relative to control; type: functional; settings: SF-268, 48 h, read-out: Activity
# SNB-75 [7] = experiment: Growth inhibition of human SNB75 cells assessed as cell growth at 0.1 uM incubated for 48 hrs by sulforhodamine B assay relative to control; type: functional; settings: SNB-75, 48 h, read-out: Activity
# M14 = experiment: Growth inhibition of human M14 cells assessed as cell growth at 0.1 uM incubated for 48 hrs by sulforhodamine B assay relative to control; type: functional; settings: M14, 48 h, read-out: Activity
# IGROV-1 = experiment: Growth inhibition of human IGROV1 cells assessed as cell growth at 0.1 uM incubated for 48 hrs by sulforhodamine B assay relative to control; type: functional; settings: IGROV-1, 48 h, read-out: Activity
# OVCAR-3 = experiment: Growth inhibition of human OVCAR3 cells assessed as cell growth at 0.1 uM incubated for 48 hrs by sulforhodamine B assay relative to control; type: functional; settings: OVCAR-3, 48 h, read-out: Activity
# SN12C = experiment: Growth inhibition of human SN12C cells assessed as cell growth at 0.1 uM incubated for 48 hrs by sulforhodamine B assay relative to control; type: functional; settings: read-out: Activity
# Hs-578T [8] = experiment: Growth inhibition of human Hs578T cells assessed as cell growth at 0.1 uM incubated for 48 hrs by sulforhodamine B assay relative to control; type: functional; settings: read-out: Activity
# NCI-H23 [9] = experiment: Growth inhibition of human NCI-H23 cells assessed as cell growth at 1 uM incubated for 48 hrs by sulforhodamine B assay relative to control; type: functional; settings: NCI-H23, 48 h, read-out: Activity
# SNB-75 [10] = experiment: Growth inhibition of human SNB75 cells assessed as cell growth at 1 uM incubated for 48 hrs by sulforhodamine B assay relative to control; type: functional; settings: SNB-75, 48 h, read-out: Activity
# U-251 = experiment: Growth inhibition of human U251 cells assessed as cell growth at 1 uM incubated for 48 hrs by sulforhodamine B assay relative to control; type: functional; settings: U-251, 48 h, read-out: Activity
# OVCAR-5 = experiment: Growth inhibition of human OVCAR5 cells assessed as cell growth at 1 uM incubated for 48 hrs by sulforhodamine B assay relative to control; type: functional; settings: OVCAR-5, 48 h, read-out: Activity
# 786-0 = experiment: Growth inhibition of human 786-0 cells assessed as cell growth at 1 uM incubated for 48 hrs by sulforhodamine B assay relative to control; type: functional; settings: 786-0, 48 h, read-out: Activity
# CAKI-1 = experiment: Growth inhibition of human Caki1 cells assessed as cell growth at 1 uM incubated for 48 hrs by sulforhodamine B assay relative to control; type: functional; settings: CAKI-1, 48 h, read-out: Activity
# HCT-15 [11] = experiment: Growth inhibition of human HCT15 cells assessed as cell growth at 100 uM incubated for 48 hrs by sulforhodamine B assay relative to control; type: functional; settings: HCT-15, 48 h, read-out: Activity
# HT-29 = experiment: Growth inhibition of human HT-29 cells assessed as cell growth at 100 uM incubated for 48 hrs by sulforhodamine B assay relative to control; type: functional; settings: HT-29, 48 h, read-out: Activity
# UO-31 = experiment: Growth inhibition of human UO31 cells assessed as cell growth at 100 uM incubated for 48 hrs by sulforhodamine B assay relative to control; type: functional; settings: UO-31, 48 h, read-out: Activity
# BT-549 = experiment: Growth inhibition of human BT549 cells assessed as cell growth at 100 uM incubated for 48 hrs by sulforhodamine B assay relative to control; type: functional; settings: BT-549, 48 h, read-out: Activity
# MDA-MB-468 = experiment: Growth inhibition of human MDA-MB-468 cells assessed as cell growth at 100 uM incubated for 48 hrs by sulforhodamine B assay relative to control; type: functional; settings: MDA-MB-468, 48 h, read-out: Activity
# [12] = read-out: LC50 (the source's name)
# [13] = read-out: pLC50 (the source's name) (converted)
smiles,measurement,setting,value
COc1cc(Cl)cc(-c2nn(-c3cccc(NC(=O)c4ccc(N5CCOCC5)c(C(F)(F)F)c4)c3)cc2-c2ccncc2)c1,growth at 10 µM,TK-10,90.6%
same,GI50,NCI-H522; read-out: GI50,4.72 µM
same,CC50,NCI-H522; [12],> 100 µM
same,TGI,NCI-H522; read-out: TGI,> 100 µM
same,GI50,NCI-H522; read-out: pGI50 (converted),4.68 µM
same,CC50,NCI-H522; [13],> 100 µM
same,TGI,NCI-H522; read-out: pTGI (converted),> 100 µM
same,GI50,HCT-15 [1]; read-out: GI50,3.25 µM
same,CC50,HCT-15 [1]; [12],> 100 µM
same,TGI,HCT-15 [1]; read-out: TGI,> 100 µM
same,GI50,HCT-15 [1]; read-out: pGI50 (converted),3.24 µM
same,CC50,HCT-15 [1]; [13],> 100 µM
same,TGI,HCT-15 [1]; read-out: pTGI (converted),> 100 µM
same,GI50,Malme-3M; read-out: GI50,2.53 µM
same,CC50,Malme-3M; [12],> 100 µM
same,TGI,Malme-3M; read-out: TGI,> 100 µM
same,GI50,Malme-3M; read-out: pGI50 (converted),28.2 µM
same,CC50,Malme-3M; [13],> 100 µM
same,TGI,Malme-3M; read-out: pTGI (converted),> 100 µM
same,GI50,OVCAR-8; read-out: GI50,6.33 µM
same,CC50,OVCAR-8; [12],> 100 µM
same,TGI,OVCAR-8; read-out: TGI,> 100 µM
same,GI50,OVCAR-8; read-out: pGI50 (converted),6.31 µM
same,CC50,OVCAR-8; [13],> 100 µM
same,TGI,OVCAR-8; read-out: pTGI (converted),> 100 µM
same,GI50,Hs-578T [2]; read-out: GI50,5.48 µM
same,CC50,Hs-578T [2]; [12],> 100 µM
same,TGI,Hs-578T [2]; read-out: TGI,> 100 µM
same,GI50,Hs-578T [2]; read-out: pGI50 (converted),6.46 µM
same,CC50,Hs-578T [2]; [13],> 100 µM
same,TGI,Hs-578T [2]; read-out: pTGI (converted),> 100 µM
same,growth at 0.01 µM,HCT-116 [3],97%
same,growth at 0.01 µM,SNB-19,96%
same,growth at 0.01 µM,SNB-75 [4],58%
same,growth at 0.01 µM,RXF 393,97%
same,growth at 0.1 µM,SR,91%
same,growth at 0.1 µM,NCI-H23 [5],90%
same,growth at 0.1 µM,HCT-116 [6],97%
same,growth at 0.1 µM,SF-268,94%
same,growth at 0.1 µM,SNB-75 [7],54%
same,growth at 0.1 µM,M14,96%
same,growth at 0.1 µM,IGROV-1,100%
same,growth at 0.1 µM,OVCAR-3,107%
same,growth at 0.1 µM,SN12C,95%
same,growth at 0.1 µM,Hs-578T [8],92%
same,growth at 1 µM,NCI-H23 [9],96%
same,growth at 1 µM,SNB-75 [10],51%
same,growth at 1 µM,U-251,78%
same,growth at 1 µM,OVCAR-5,75%
same,growth at 1 µM,786-0,74%
same,growth at 1 µM,CAKI-1,94%
same,growth at 100 µM,HCT-15 [11],5%
same,growth at 100 µM,HT-29,-17%
same,growth at 100 µM,UO-31,17%
same,growth at 100 µM,BT-549,49%
same,growth at 100 µM,MDA-MB-468,17%
COc1cc(Cl)cc(-c2nn(-c3cccc(NC(=O)Nc4ccc(Cl)c(Cl)c4)c3)cc2-c2ccncc2)c1,growth at 10 µM,TK-10,19.8%
same,GI50,NCI-H522; read-out: GI50,1.29 µM
same,CC50,NCI-H522; [12],> 100 µM
same,TGI,NCI-H522; read-out: TGI,44.8 µM
same,GI50,NCI-H522; read-out: pGI50 (converted),1.29 µM
same,CC50,NCI-H522; [13],> 100 µM
same,TGI,NCI-H522; read-out: pTGI (converted),4.47 µM
same,GI50,HCT-15 [1]; read-out: GI50,2.51 µM
same,CC50,HCT-15 [1]; [12],> 100 µM
same,TGI,HCT-15 [1]; read-out: TGI,31.5 µM
same,GI50,HCT-15 [1]; read-out: pGI50 (converted),2.51 µM
same,CC50,HCT-15 [1]; [13],> 100 µM
same,TGI,HCT-15 [1]; read-out: pTGI (converted),31.6 µM
same,GI50,Malme-3M; read-out: GI50,2.06 µM
same,CC50,Malme-3M; [12],> 100 µM
same,TGI,Malme-3M; read-out: TGI,75.5 µM
same,GI50,Malme-3M; read-out: pGI50 (converted),2.04 µM
same,CC50,Malme-3M; [13],> 100 µM
same,TGI,Malme-3M; read-out: pTGI (converted),7.94 µM
same,GI50,OVCAR-8; read-out: GI50,2.3 µM
same,CC50,OVCAR-8; [12],> 100 µM
same,TGI,OVCAR-8; read-out: TGI,11.2 µM
same,GI50,OVCAR-8; read-out: pGI50 (converted),2.29 µM
same,CC50,OVCAR-8; [13],> 100 µM
same,TGI,OVCAR-8; read-out: pTGI (converted),11.2 µM
same,GI50,Hs-578T [2]; read-out: GI50,3.59 µM
same,CC50,Hs-578T [2]; [12],> 100 µM
same,TGI,Hs-578T [2]; read-out: TGI,> 100 µM
same,GI50,Hs-578T [2]; read-out: pGI50 (converted),3.89 µM
same,CC50,Hs-578T [2]; [13],> 100 µM
same,TGI,Hs-578T [2]; read-out: pTGI (converted),> 100 µM
same,growth at 0.01 µM,HCT-116 [3],105%
same,growth at 0.01 µM,SNB-19,92%
same,growth at 0.01 µM,SNB-75 [4],88%
same,growth at 0.01 µM,RXF 393,100%
same,growth at 0.1 µM,SR,51%
same,growth at 0.1 µM,NCI-H23 [5],93%
same,growth at 0.1 µM,HCT-116 [6],100%
same,growth at 0.1 µM,SF-268,95%
same,growth at 0.1 µM,SNB-75 [7],90%
same,growth at 0.1 µM,M14,100%
same,growth at 0.1 µM,IGROV-1,101%
same,growth at 0.1 µM,OVCAR-3,101%
same,growth at 0.1 µM,SN12C,100%
same,growth at 0.1 µM,Hs-578T [8],97%
same,growth at 1 µM,NCI-H23 [9],89%
same,growth at 1 µM,SNB-75 [10],71%
same,growth at 1 µM,U-251,71%
same,growth at 1 µM,OVCAR-5,87%
same,growth at 1 µM,786-0,84%
same,growth at 1 µM,CAKI-1,79%
same,growth at 100 µM,HCT-15 [11],-9%
same,growth at 100 µM,HT-29,-44%
same,growth at 100 µM,UO-31,-10%
same,growth at 100 µM,BT-549,-15%
same,growth at 100 µM,MDA-MB-468,-18%
